Measurements published in BigSolDB 2.1.

Brc1cc(Br)cc(Br)c1
solubility (mole fraction)
Details | 288.15 K | 293.15 K | 298.15 K | 303.15 K | 308.15 K | 313.15 K | 318.15 K | 323.15 K | 328.15 K
in 1,4-dioxane | 0.0656 | 0.0742 | 0.0851 | 0.0972 | 0.111 | 0.123 | 0.141 | 0.157 | 0.178
in DMAc | 0.0159 | 0.0195 | 0.024 | 0.0292 | 0.0346 | 0.041 | 0.0491 | 0.0582 | 0.0683
in DMF | 0.00998 | 0.0127 | 0.0161 | 0.0202 | 0.0244 | 0.0295 | 0.0355 | 0.044 | 0.0521
